| SMILES | melting point [°C] |
| --- | --- |
| Cc1[nH]cnc1CCC(=O)N(C)C | 62 to 64 |
| COC(=O)c1ccc(C=Cc2nc3ccccc3s2)cc1 | 168 to 169 |
| CCN(C)c1nsc(NC(=O)N(C)C)c1C#N | 115 to 130 |
| CC(C)Oc1c(-c2ccc(S(C)(=O)=O)cc2)cnn(-c2ccc(F)cc2)c1=O | 135 to 137 |
| C#Cc1cnc2c(C)cc(OC(SC)C(=O)NC(C)(C#C)COC)cc2c1 (stereo unspecified) | 108 to 109 |
| Cc1oc2cc(NS(C)(=O)=O)c(Oc3ccccc3)cc2c(=O)c1C(=O)O | 238 to 241 |
| C=CCc1c(O)c(Br)cc2c1[C@H](CCNC(=O)CC)CC2 | 85 to 87 |
| CC(OCc1cc2nc(Cl)ccc2n1S(=O)(=O)c1ccccc1)C(=O)O (stereo unspecified) | 150 |
| CCCCNC(=O)n1c(=S)[nH]c2ccccc21 | 179 to 180 |
| CON=C(C(=O)O)c1nsc(NC=O)n1 | 185 to 186 |
| CC(C)(C)OC(=O)N(C(=N)NS(=O)(=O)C(F)(F)F)C(=O)OC(C)(C)C | 114 to 115 |
| CCCc1ccnc(C(N)=O)c1C(N)=O | 178 to 179 |
| C=CCNc1c(C(N)=O)cnc2cn[nH]c12 | 254 to 258 |
| O=C(Nc1nc(/C=C/c2ccc([N+](=O)[O-])cc2)cs1)c1ccccc1 | 224 to 225 |
| CCCCCCCCCCCc1cc2ccc(C(=O)OCC)cc2[nH]1 | 84 to 86 |
| Nc1ccc(CCCCC(=O)O)nc1 | 80 to 82 |
| COC(=O)CCC(=O)c1ccc(-c2ccc(C#N)cc2)cc1 | 149 to 151 |
| CCOC(=O)C(=CNc1ccc(F)c(SCC)n1)C(=O)OCC | 77.5 to 78.5 |
| Cc1ccsc1C(Cc1ccccc1NCN1C(=O)CCC1=O)N(C)C=O (stereo unspecified) | 160 to 164 |
| Cc1c(C)c2c(c(C)c1O)CCC(C)(C(=O)NCC1(c3ccc(-n4c(C)ccc4C)cc3)CCCC1)O2 (stereo unspecified) | 90 to 94 |
| Cn1ccc2cc(-c3ccc(S(=O)(=O)n4ccc(/C=C/C(=O)NO)c4)cc3)ccc21 | 177 to 179 |
| CC(C)(C)OC(=O)NCc1nc2c(C(F)(F)F)cccc2c(O)c1C(=O)Nc1nccs1 | 238 |
| CC1(C)OC(=O)Nc2c(Br)cc(-c3cc(F)cc(C#N)c3)cc21 | 216 to 217 |
| CC(=O)NCC1OC(=O)N2c3ccc(-c4ccccc4)cc3CC12 (stereo unspecified) | 181 to 183 |

| SMILES | melting point [°C] |
| --- | --- |
| COc1ccc(C(C#N)Cc2cc(OC)c(OC)c(OC)c2)cc1 (stereo unspecified) | 102 to 103 |
| Cc1ccc(C(F)C(F)(F)S(=O)(=O)c2ccccc2)cc1 (stereo unspecified) | 80 to 82 |
| CCCCCCCCCCCCCCCCCNC(=O)O[C@@H]1CCCO[C@H]1COc1cc(CCCCO)on1 (relative stereo) | 86 to 87 |
| CCCCCCCCCCNC(CCCNC(=N)N)C(=O)O (stereo unspecified) | 100 |
| CC(C)n1nc(-c2sc(NC(=O)c3c(Cl)cccc3Cl)nc2-c2ccccc2)ccc1=O | 248 to 249 |
| COc1c(C(C)(C)C)cc(P(c2cc(C(C)(C)C)c(OC)c(C(C)(C)C)c2)c2ccccc2P2c3ccccc3CC2C(C)C)cc1C(C)(C)C (single isomer, unassigned; (+)) | 69 to 70 |
| CCOC1=Cc2ccccc2N(C)c2ccc(Br)cc21 | 131 |
| O=C(CCc1ccccc1)CN1C(=O)CC1S(=O)CCO (stereo unspecified) | 64 to 65 |
| CCSc1cc(C)nc(SCC)c1NC(=O)CCCCCCCCSc1nc2c(C)c(Cl)cc(C(C)C)c2o1 | 93 to 94 |
| O=S(CCCCCl)Cc1ccc(-c2ccccc2)cc1 (stereo unspecified) | 116 to 117 |
| CCNc1ccccc1S(=O)(=O)C[N+](=O)[O-] | 82 |
| CCC(=O)c1c(-c2ccncc2)[nH]c(-c2ccncc2)c1C | 237 to 238 |
| CCC1(O)CC(=O)OCc2c1cc1n(c2=O)Cc2cc3ccc(F)cc3nc2-1 (stereo unspecified) | > 250 |
| Cc1nnc(-c2nnc(S)o2)o1 | 150 to 151 |
| COc1ccccc1S(=O)(=O)c1c(NS(=O)(=O)c2ccc(C(C)(C)C)cc2)ncnc1OCCOc1ncc(Br)cn1 | 208 |
| Cc1oc2ccccc2c(=O)c1C(=O)O | 120 to 135 |
| CCCN(CCC)CCCC1CCN(CCNC(=O)N2c3ccccc3NC(=O)c3csc(C)c32)CC1 | 114 to 115 |
| Cc1oc(-c2ccccc2)nc1CCC(O)c1ccc(CCCC2OC(=O)NC2=O)cc1 (stereo unspecified) | 150 to 151 |
| CC(C)OC(=O)c1c(S(C)(=O)=O)ccc(C(=O)O)c1Cl | 114 to 118 |
| CCC(COC)(OC)c1cc(F)cc(OCc2ccccc2)c1 (stereo unspecified) | 61 to 62 |
| Cc1ccc(CCOc2ccnc3c(F)cccc23)cc1 | 89 to 90 |
| CC(=O)NC1(c2ccccc2)CCN(CCC(CN2C(=O)c3ccccc3C2=O)c2ccc(Cl)c(Cl)c2)CC1 (stereo unspecified) | 83 to 85 |
| Clc1ccc2[nH]cc(C3=CCN(CCCOc4cccc5[nH]ccc45)CC3)c2c1 | 198 to 202 |
| O=[N+]([O-])c1ccccc1Oc1cc(Cl)cc(Cl)c1 | 78 to 80 |

| SMILES | melting point [°C] |
| --- | --- |
| CNC(NCCSCc1nccc(NC(N)=NCC(F)(F)F)n1)=C(C#N)C#N | 173 to 174 |
| CS(=O)(=O)CC(=O)c1ccc(NS(C)(=O)=O)c(Oc2ccc(F)cc2F)c1 | 162 to 163 |
| COC(=O)C(O)C(NCc1ccccc1)c1ccc(Cl)cc1 (stereo unspecified) | 106 to 108 |
| COC(=O)Cc1ccc(C(=O)O)cc1 | 134 to 136 |
| CCOC(=O)/C=C/c1ccc(/C=C/c2c(OC)cc3c(c2OC)C(C)(C)CCC3(C)C)cc1 | 205 to 207 |
| Cc1nnc(-c2ccc3occ(-c4cccc(C#N)c4)c3c2)o1 | 204 to 205 |
| CC(C)(C)Sc1ccc(CN(O)C(N)=O)s1 | 101 to 103 |
| CCN1C(=O)C(C)(C)C(=O)N(C)c2cc(CN(CCn3c(=O)ccc4ccccc43)Cc3ccc(OC)nc3C)ccc21 | 143 to 144 |
| CC(Cc1ccccc1C(=O)O)c1cccs1 (stereo unspecified) | 66 to 68 |
| CCC1SC(=O)N(Cc2ccc(C(=O)O)cc2)N=C1c1ccc(O)c(O)c1 (stereo unspecified) | 106 |
| Cn1ccc(C(=O)c2sc(NC(=O)c3ccncc3)nc2-c2ccco2)c1 | 209 to 211 |
| CCOC(=O)C(Cc1cscn1)NC(C)=O (racemic) | 58 to 62 |
| COC(=O)c1ccc(-c2ncccc2S(=O)(=O)Nc2ncc(C)nc2OC)cc1 | 144 to 146 |
| Cc1ccc(C)c(OCc2ccccc2CCl)c1 | 46.5 to 48.5 |
| COc1ccc2c(=O)n(S(=O)(=O)c3ccc(C)cc3)c(=O)[nH]c2c1 | 228 to 231 |
| CCCNC(=O)c1nc(-c2ccccc2)c(-c2ccc(=O)n(C(C)C)n2)s1 | 141 to 142 |
| CC1CCCC(C)C1=CC1C(C(=O)O)C1(C)C (stereo unspecified) | 96 |
| O=S(=O)(NCCO)c1cccc(-c2cc(-c3nc(-c4ccc(C(F)(F)F)cc4)cc(C(F)(F)F)n3)ccn2)c1 | 192 |
| CC(C)CC(=O)Nc1cccc(-c2ccnc3c(-c4ccc(Oc5ccccc5)cc4)cnn23)c1 | 175 to 178 |
| CCOC(=O)c1ccc(NS(C)(=O)=O)c([N+](=O)[O-])c1 | 124 |
| CC1(C)COc2cc(O)c(C=O)cc21 | 100 to 102 |
| COc1ccc(C2=NCC(NN)=Nc3ccc(Cl)cc32)cc1 | 213 to 215 |

Further lines, results first:

| melting point [°C] | SMILES |
| --- | --- |
| 141 | C=CC1CCC2c3ccc(OCC)c(F)c3OC2C1 (stereo unspecified) |
| 61 to 64 | c1cnc(-c2nc(C3CC3)no2)cn1 |
| 128 to 130 | NC1([C@@H]2CCN(c3ccc4c(=O)c(C(=O)O)cn([C@@H]5C[C@@H]5F)c4c3Cl)C2)CC1 |
| 172 to 173 | CCCN(CC(C)n1c(CCOC)nc2c(N)nc3ccccc3c21)C(N)=S (stereo unspecified) |
| 157 to 158 | Clc1nc2c(c(N[C@@H]3CCC[C@H]3OCc3ccccc3)n1)SCC2 |
| 229 to 232 | Nc1ccc2nc3c(nc2c1)OCC1CCCCN31 (stereo unspecified) |
| 154 to 157 | Cc1cc(SCc2ccnc3oc(-c4ccc(C(F)(F)F)cc4)nc23)ccc1OCC(=O)O |
| 173 to 174 | CC(C)(C)c1ccc(CC[C@H](CC2CCCCC2)O[Si](C)(C)C(C)(C)C)cc1NC(=O)CC1c2ccccc2Oc2ccccc21 |
| 192 | CC(=O)NC[C@H]1CN(c2ccc(N3CCC(n4nnnc4CS(C)(=O)=O)CC3)c(F)c2)C(=O)O1 |
| 245 to 247 | O=C1c2cc(O)ccc2OCC1n1ccnc1 (stereo unspecified) |
| > 270 | N#CC1=C(c2cc3ccccc3o2)Nc2n[nH]cc2C1c1cccc2nonc12 (stereo unspecified) |
| 204 to 206 | O=C1N(C(c2ccccc2)c2ccccc2)c2ccccc2C1(O)c1cc2c(cc1O)OCCC2 (stereo unspecified) |
| 212 to 214 | O=c1c2cccc3cccc(c32)c2nc3cc(C(F)(F)F)ccc3n12 |
| 122 to 124 | O=C1CCCCC1c1c[nH]c2ccccc12 (stereo unspecified) |
| 72 to 73.5 | CCc1nc2cnc3ccccc3c2n1CC(C)C |
| 229 to 231 | Clc1cccc(Nc2nnc(-c3ccc4nonc4c3)s2)c1Cl |

| melting point [°C] | SMILES |
| --- | --- |
| 166 to 167 | Nc1nnc(N2CCN(CCOc3ccc(Br)cc3)CC2)[nH]1 |
| 168 to 170 | CCNC(=O)C(C)(C)COc1cccc2nc(C)c(C(=O)O)c(N)c12 |
| 92 to 93 | c1cc(OCc2ccc3ccccc3n2)cc(C2SCCCS2)c1 |
| 136 to 137 | CCn1cnc2c(Nc3cccc(C(F)(F)F)c3)nc(NCCCO)nc21 |
| 221 to 225 | Nc1ccn2nc(N3CCCC3)nc2c1 |
| 180 to 182 | Cn1nncc1-c1cc(C=O)c2occc2c1 |
| > 250 | Nc1cccc(C(=O)Nc2ccc(-c3c[nH]c(=O)cn3)cc2)c1 |
| 265 to 267 | COc1cc2ncc(C#N)c(Nc3ccc(Cl)c(C(F)(F)F)c3)c2cc1OC |
| 135 | Cc1ncc(N)cc1Nc1nccc(-c2cccnc2)n1 |
| 125 | CC(Oc1ccc(N(C)c2nnc3cc(Cl)ccc3n2)cc1)C(=O)O (stereo unspecified) |
| 199 to 201 | CCN(CC)c1nc(-c2ccc3c(c2)OCO3)nc2sc(C#N)c(C)c12 |
| 130 to 132 | C=CCOc1nc(N)nc(-c2ccccc2)c1-c1ccc(=O)n(C(C)C)n1 |
| 175 to 177 | COc1cc(OC)c2c(=O)[nH]c(-c3cccc(N4CCN(CCO)CC4)n3)nc2c1 |
| 116 to 118 | CCOC(=O)c1cc2oc3c(n2n1)CCOC3 |
| 120 to 122 | CCCN1CCc2cc(NC(=O)C(=O)N[C@H]3CCOC3O)ccc21 (stereo partly specified) |
